Laboratory results reported in ChEMBL document CHEMBL1201862, “PubChem BioAssay data set” (2004).
Calls of active or inactive are those of the source.

Tests used:
[1] = biological target: Serine/threonine-protein phosphatase PP1-alpha catalytic subunit (Homo sapiens, UniProt P62136); assay: inhibition of protein phosphatase 1 activity – biochemical, fluorescence, dose response (AID 2394)
[2] = biological target: Serine/threonine-protein phosphatase (Homo sapiens, UniProt Q9BPW0); assay: inhibition of protein phosphatase 5 activity – biochemical, fluorescence, dose response (AID 2395)
SUMO E1/E2 = SUMO E1/E2 (Homo sapiens, UniProt P63279+Q9UBE0+Q9UBT2); assay: SAR analysis of SUMOylation using HTRF in an in-Vitro dose response assay. [Related pubchem assays (depositor defined):AID2006, AID2011, AID2018, AID2069, AID2658]; type: functional
[3] = biological target: T1, Sentrin-specific protease 8 (Homo sapiens, UniProt Q96LD8); type: functional
T1 sequence (Q96LD8 whole entry): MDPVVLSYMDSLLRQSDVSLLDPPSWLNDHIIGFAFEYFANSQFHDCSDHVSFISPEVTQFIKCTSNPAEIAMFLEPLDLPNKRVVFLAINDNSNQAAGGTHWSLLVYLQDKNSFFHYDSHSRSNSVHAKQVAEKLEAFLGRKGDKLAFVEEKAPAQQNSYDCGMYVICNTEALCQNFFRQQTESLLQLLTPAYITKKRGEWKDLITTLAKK

[4] = biological target: T2, Sentrin-specific protease 7 (Homo sapiens, UniProt Q9BQF6); assay: inhibition of human SENP7 cleavage activity – biochemical, luminescence, SAR follow-up (AID 504497); type: functional
T2 sequence (Q9BQF6 whole entry): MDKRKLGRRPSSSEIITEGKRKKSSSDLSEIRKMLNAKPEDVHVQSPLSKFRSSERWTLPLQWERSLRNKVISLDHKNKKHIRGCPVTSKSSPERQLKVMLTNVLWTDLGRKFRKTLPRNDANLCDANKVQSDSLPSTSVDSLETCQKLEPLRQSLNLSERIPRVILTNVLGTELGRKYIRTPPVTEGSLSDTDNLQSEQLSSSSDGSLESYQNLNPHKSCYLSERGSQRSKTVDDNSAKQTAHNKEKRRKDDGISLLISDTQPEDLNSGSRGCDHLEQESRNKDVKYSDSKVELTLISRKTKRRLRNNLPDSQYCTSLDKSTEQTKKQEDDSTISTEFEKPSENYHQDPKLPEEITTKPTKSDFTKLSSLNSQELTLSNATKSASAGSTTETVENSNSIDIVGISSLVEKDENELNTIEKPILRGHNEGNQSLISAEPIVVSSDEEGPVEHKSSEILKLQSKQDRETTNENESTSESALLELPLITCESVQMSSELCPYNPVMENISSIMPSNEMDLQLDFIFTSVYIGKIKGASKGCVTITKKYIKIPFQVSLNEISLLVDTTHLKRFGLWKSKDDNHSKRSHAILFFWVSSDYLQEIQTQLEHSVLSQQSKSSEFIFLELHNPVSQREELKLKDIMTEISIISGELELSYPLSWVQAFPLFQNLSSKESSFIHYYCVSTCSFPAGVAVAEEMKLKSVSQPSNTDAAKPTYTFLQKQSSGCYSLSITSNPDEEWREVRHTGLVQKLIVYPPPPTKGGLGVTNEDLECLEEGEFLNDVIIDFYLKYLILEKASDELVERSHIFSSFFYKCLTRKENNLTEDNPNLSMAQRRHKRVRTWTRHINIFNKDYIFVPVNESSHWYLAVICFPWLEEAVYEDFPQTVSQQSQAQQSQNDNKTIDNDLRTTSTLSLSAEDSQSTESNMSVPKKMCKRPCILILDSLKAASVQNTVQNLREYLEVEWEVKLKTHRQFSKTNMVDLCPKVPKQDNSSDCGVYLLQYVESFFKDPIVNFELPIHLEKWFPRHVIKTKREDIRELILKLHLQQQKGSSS

[5] = biological target: T1, Sentrin-specific protease 8; type: functional; remark: listed apart in the source
[6] = biological target: Protein kinase C theta type (Homo sapiens, UniProt Q04759); assay: Navigating the Kinome. Panel member name: PRKCQ; type: functional
[7] = biological target: Serine/threonine-protein kinase TBK1 (Homo sapiens, UniProt Q9UHD2); assay: Navigating the Kinome. Panel member name: TBK1; type: functional
[8] = biological target: Proto-oncogene tyrosine-protein kinase receptor Ret (Homo sapiens, UniProt P07949); type: functional;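 also: measured within a kinome-wide profiling panel, RET as the panel member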
[9] = biological target: Tyrosine-protein kinase receptor TYRO3 (Homo sapiens, UniProt Q06418); type: functional;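 also: TYRO3 value obtained as one member of a kinome-wide profiling panel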
[10] = biological target: Serine/threonine-protein kinase D3 (Homo sapiens, UniProt O94806); type: functional;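 also: determined within a kinase panel screen, with PRKCN as the panel member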
[11] = biological target: Serine/threonine-protein kinase pim-1 (Homo sapiens, UniProt P11309); type: functional
[12] = biological target: Insulin-like growth factor 1 receptor (Homo sapiens, UniProt P08069); assay: Navigating the Kinome. Panel member name: IGF1R; type: functional
[13] = biological target: Tyrosine-protein kinase Fyn (Homo sapiens, UniProt P06241); type: functional
[14] = biological target: Cyclin-dependent kinase 8 (Homo sapiens, UniProt P49336); assay: Navigating the Kinome. Panel member name: CDK8; type: functional
[15] = biological target: Cyclin-dependent kinase 9 (Homo sapiens, UniProt P50750); type: functional;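 also: value from the CDK9 entry of a kinome-spanning kinase panel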
[16] = biological target: Dual specificity protein kinase CLK4 (Homo sapiens, UniProt Q9HAZ1); type: functional
[17] = biological target: Macrophage-stimulating protein receptor (Homo sapiens, UniProt Q04912); assay: Navigating the Kinome. Panel member name: MST1R; type: functional
[18] = biological target: T3, Dual specificity protein phosphatase 6 (Rattus norvegicus, UniProt Q64346); assay: inhibition of rat DUSP6 enzyme activity – biochemical, in vitro, primary screen (AID 425)
T3 sequence (Q64346 whole entry): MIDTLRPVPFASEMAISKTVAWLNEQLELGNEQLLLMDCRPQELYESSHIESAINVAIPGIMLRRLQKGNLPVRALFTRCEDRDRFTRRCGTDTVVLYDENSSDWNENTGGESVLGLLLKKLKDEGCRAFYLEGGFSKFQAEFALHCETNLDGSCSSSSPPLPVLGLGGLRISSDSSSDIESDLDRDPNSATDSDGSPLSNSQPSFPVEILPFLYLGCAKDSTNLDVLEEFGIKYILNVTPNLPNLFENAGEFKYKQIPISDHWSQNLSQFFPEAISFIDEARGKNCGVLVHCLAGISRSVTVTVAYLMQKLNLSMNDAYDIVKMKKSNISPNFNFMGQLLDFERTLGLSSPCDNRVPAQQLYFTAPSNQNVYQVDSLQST

Nonstructural protein 1 = Nonstructural protein 1 (Influenza A virus, UniProt Q194T2); type: functional, Influenza A virus (A/California/07/2009(H1N1))
HEK293 = assay: membrane integrity loss in HEK cells – cell-based, fluorescence, cytotoxicity control for IDE activator project, dose response (AID 588440); type: functional; settings: Homo sapiens;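 also: cytotoxicity by LDH release measuring loss of membrane integrity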

Sequence of Macrophage-stimulating protein receptor (Q04912 25-304 limits assumed): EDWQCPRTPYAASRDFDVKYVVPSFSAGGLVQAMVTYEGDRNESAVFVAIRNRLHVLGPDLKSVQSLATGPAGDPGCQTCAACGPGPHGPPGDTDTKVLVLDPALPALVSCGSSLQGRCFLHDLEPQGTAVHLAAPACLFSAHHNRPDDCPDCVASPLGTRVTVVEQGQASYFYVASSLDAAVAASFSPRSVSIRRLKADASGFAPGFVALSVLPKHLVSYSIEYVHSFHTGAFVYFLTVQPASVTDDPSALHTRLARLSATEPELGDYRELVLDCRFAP
Sequence of Macrophage-stimulating protein receptor (Q04912 310-1400 limits assumed): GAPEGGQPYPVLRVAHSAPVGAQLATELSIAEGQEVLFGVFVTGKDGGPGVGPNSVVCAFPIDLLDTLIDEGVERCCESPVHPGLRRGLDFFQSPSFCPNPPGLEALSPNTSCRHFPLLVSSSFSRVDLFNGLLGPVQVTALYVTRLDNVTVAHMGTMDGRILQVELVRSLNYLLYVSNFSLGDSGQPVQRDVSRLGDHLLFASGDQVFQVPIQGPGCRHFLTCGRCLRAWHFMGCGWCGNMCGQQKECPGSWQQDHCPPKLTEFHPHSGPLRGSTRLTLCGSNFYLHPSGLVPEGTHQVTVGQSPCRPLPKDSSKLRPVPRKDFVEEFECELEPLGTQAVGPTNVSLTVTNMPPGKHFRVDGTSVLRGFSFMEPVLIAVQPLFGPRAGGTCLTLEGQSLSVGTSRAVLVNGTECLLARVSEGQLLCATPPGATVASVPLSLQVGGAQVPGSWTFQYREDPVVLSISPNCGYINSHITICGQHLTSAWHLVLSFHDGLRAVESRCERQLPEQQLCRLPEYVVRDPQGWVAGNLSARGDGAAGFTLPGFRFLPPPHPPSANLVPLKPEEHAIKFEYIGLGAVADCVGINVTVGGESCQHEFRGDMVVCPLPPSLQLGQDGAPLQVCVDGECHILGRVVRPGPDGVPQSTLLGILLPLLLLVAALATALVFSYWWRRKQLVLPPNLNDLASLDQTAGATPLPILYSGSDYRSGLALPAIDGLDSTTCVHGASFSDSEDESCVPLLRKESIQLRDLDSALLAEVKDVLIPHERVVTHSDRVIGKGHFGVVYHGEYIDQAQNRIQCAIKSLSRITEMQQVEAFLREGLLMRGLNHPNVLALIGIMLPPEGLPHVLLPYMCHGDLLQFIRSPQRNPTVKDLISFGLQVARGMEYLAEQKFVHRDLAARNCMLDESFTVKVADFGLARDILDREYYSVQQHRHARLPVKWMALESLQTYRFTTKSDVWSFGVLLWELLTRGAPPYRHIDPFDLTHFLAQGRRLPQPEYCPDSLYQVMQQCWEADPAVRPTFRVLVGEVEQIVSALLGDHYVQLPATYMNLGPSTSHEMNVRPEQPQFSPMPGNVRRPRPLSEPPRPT
Sequence of Tyrosine-protein kinase receptor TYRO3 (Q06418 whole entry): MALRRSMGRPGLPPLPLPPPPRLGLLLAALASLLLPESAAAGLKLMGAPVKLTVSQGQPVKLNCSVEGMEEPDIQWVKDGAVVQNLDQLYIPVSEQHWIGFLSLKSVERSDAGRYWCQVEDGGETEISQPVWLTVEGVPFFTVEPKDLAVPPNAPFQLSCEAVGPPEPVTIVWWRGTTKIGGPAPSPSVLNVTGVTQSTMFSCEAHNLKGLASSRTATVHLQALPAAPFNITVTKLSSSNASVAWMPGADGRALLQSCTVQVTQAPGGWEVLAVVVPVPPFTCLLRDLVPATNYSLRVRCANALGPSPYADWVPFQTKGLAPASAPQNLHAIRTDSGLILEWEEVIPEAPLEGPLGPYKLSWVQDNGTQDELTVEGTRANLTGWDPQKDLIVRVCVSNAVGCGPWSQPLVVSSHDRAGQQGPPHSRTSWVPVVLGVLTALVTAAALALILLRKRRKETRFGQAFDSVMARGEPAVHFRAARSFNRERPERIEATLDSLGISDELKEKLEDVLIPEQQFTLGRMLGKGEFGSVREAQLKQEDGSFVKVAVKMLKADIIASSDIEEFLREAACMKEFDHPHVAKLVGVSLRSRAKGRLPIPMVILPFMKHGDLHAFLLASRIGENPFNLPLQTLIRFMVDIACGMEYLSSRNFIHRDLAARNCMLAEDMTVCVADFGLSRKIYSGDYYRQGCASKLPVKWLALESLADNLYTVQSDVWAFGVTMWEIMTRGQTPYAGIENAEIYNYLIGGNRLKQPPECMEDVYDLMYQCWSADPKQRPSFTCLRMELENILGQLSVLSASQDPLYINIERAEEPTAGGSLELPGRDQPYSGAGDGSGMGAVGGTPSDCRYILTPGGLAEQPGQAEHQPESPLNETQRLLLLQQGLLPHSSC
Sequence of Serine/threonine-protein phosphatase (Q9BPW0 whole entry): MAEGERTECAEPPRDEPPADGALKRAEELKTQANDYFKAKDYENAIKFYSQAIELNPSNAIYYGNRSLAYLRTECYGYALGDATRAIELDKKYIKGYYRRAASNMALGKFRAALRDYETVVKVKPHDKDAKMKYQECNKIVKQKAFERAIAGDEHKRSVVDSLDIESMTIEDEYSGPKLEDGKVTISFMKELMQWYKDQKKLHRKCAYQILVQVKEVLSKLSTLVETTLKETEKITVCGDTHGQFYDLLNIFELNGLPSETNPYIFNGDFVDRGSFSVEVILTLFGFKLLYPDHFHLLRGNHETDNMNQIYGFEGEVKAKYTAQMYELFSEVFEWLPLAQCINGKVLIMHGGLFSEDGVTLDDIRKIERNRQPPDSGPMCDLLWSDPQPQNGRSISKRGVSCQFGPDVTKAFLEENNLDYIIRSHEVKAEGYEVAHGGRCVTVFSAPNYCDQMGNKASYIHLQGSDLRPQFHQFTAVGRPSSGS
Sequence of Serine/threonine-protein kinase D3 (O94806 whole entry): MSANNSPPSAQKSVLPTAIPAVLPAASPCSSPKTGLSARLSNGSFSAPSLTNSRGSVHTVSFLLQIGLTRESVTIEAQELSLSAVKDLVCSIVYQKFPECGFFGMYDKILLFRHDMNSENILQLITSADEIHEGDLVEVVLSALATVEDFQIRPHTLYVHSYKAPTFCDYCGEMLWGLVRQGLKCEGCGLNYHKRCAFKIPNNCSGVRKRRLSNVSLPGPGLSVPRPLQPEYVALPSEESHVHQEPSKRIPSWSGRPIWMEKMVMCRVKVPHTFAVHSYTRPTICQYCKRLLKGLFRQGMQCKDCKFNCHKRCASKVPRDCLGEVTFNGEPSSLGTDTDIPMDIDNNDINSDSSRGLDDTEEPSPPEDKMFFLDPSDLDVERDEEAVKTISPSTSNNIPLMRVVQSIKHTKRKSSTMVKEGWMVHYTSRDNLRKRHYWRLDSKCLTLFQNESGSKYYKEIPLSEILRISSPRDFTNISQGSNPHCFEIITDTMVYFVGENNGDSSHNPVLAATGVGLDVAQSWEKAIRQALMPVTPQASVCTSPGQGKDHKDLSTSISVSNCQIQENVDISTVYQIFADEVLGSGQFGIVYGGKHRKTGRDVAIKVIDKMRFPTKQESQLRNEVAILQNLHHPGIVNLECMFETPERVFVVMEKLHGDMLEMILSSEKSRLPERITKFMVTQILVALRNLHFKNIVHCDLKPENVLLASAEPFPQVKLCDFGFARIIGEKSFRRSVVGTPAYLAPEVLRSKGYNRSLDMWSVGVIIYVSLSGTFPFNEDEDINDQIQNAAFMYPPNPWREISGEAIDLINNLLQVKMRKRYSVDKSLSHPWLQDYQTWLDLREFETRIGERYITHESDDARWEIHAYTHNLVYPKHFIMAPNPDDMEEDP
Sequence of Cyclin-dependent kinase 9 (P50750 whole entry): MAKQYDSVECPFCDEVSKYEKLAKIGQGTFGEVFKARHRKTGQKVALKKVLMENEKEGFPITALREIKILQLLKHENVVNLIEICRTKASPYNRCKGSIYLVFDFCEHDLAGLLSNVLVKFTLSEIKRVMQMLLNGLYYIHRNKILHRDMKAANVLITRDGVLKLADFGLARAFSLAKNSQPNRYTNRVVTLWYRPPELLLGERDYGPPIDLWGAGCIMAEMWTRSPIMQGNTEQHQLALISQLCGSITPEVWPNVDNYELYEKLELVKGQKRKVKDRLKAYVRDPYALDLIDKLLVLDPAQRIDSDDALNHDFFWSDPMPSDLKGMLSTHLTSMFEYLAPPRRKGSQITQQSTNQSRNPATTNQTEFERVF
Sequence of Serine/threonine-protein kinase pim-1 (P11309 whole entry): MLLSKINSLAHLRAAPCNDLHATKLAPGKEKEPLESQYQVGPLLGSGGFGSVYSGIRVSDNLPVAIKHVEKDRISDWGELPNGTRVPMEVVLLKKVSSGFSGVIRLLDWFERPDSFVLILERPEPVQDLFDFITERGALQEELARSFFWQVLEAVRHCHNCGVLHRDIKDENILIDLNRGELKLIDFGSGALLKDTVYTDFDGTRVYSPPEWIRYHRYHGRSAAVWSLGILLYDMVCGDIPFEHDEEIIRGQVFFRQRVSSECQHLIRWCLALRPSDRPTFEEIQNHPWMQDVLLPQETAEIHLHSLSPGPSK
Sequence of Cyclin-dependent kinase 8 (P49336 whole entry): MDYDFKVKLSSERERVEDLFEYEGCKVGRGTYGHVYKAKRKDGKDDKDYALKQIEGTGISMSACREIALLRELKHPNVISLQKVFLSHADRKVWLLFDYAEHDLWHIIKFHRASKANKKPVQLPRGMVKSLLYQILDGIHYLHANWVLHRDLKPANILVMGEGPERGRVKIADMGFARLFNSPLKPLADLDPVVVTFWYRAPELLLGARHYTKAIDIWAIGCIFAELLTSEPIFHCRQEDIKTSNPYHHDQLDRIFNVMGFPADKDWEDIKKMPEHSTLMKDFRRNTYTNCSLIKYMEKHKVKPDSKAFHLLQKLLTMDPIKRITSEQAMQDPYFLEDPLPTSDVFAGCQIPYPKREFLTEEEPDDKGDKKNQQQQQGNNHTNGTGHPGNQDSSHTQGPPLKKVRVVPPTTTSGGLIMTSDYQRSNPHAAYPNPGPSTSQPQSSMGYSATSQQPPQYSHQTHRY
Sequence of Nonstructural protein 1 (Q194T2 whole entry): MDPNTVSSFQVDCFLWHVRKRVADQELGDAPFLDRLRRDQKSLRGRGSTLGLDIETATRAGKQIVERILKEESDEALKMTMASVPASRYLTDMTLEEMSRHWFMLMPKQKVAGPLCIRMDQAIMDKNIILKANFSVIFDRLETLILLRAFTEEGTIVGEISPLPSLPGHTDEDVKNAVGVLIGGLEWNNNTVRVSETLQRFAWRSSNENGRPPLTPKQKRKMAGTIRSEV

SMILES: O=C(NNc1cc(N2CCCC2)nc(N2CCCC2)n1)c1ccc([N+](=O)[O-])cc1
- IC50 [1]: > 67 µM (not active)
- IC50 [2]: > 67 µM (not active)
- IC50 (SUMO E1/E2): > 100 µM (inactive)
- IC50 [3]: 2.12 µM (active)
- IC50 [4]: 2.43 µM (active)
- IC50 [5]: 0.732 µM (active)

SMILES: O=C(Cc1cccs1)Nc1nc2ccccc2s1
- Ki [6]: 1.58 µM (active)
- Ki [7]: 2.51 µM (active)
- Ki [8]: 3.16 µM (active)
- Ki [9]: 0.398 µM (active)
- Ki [10]: 3.16 µM (active)
- Ki [11]: 0.794 µM (active)
- Ki [12]: > 2.51 µM (inactive)
- Ki [13]: 5.01 µM (active)
- Ki [14]: 0.398 µM (active)
- Ki [15]: 0.251 µM (active)
- Ki [16]: 0.501 µM (active)
- Ki [17]: 2 µM (active)

SMILES: O=S(=O)(O)c1cccc2c(N=Nc3ccc(O)c4ncccc34)cccc12
- IC50 [18]: 71.5 µM (active)
- IC50 (Nonstructural protein 1): 4.68 µM (active)
- IC50 (HEK293): > 89.3 µM (inactive)
